# Measurements: the supplement of paper PMC7224384
# Tests used:
# MDA-MB-453 [1] = experiment: drug sensitivity score (DSS), in combination with BLU9931 (DSS (weighted AUC score)); higher = more sensitive (stronger viability decrease); extreme values may be limits of the assay; settings: BLU9931 100 nM; 72 h
# How it was run: (§1)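 Cells of the MDA-MB-453 line (2000 per well) were added in medium, with or without 100 nM final FGFR4 inhibitor, to 384-well plates predispensed with FIMM Oncology set compounds at five 10-fold dilutions covering a 10,000-fold range. After 72 h at 37 °C, 5% CO2, CellTiterGlo 2.0 read cellular ATP. Percent viability came from per-plate normalisation to control wells, and the drug sensitivity score was defined as a weighted area under a four-parameter logistic fit.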
# MDA-MB-453 [2] = experiment: drug sensitivity score (DSS), single agent (DSS (weighted AUC score)); higher = more sensitive (stronger viability decrease); extreme values may be limits of the assay; settings: BLU9931 0 nM; 72 h
# How it was run: as §1
Compound,drug sensitivity score (MDA-MB-453 [1]),drug sensitivity score (MDA-MB-453 [2])
Cc1ccc(NC(=O)c2ccc(CN3CCN(C)CC3)cc2)cc1Nc1nc(-c2cccnc2)cs1 [Masitinib],1.8,3.1
C[C@@H](Oc1ccc2[nH]nc(/C=C/c3cnn(CCO)c3)c2c1)c1c(Cl)cncc1Cl,1.8,9
C=CC(=O)Nc1cc2c(Nc3ccc(F)c(Cl)c3)ncnc2cc1OCCCN1CCOCC1 [Canertinib],17.8,15.5
CC(C)n1nc(-c2ccc3oc(N)nc3c2)c2c(N)ncnc21 [Sapanisertib],17.9,17.1
COc1cccc2c1c(O)c(C(=O)N(C)c1ccc(C(F)(F)F)cc1)c(=O)n2C [Tasquinimod],1.4,2.9
O=c1ncn2nc(Sc3ccc(F)cc3F)ccc2c1-c1c(Cl)cccc1Cl [Neflamapimod],0,0
CC(=O)O[C@H]1C(=O)[C@@]2(C)[C@H]([C@H](OC(=O)c3ccccc3)[C@]3(O)C[C@H](OC(=O)[C@H](O)[C@@H](NC(=O)c4ccccc4)c4ccccc4)C(C)=C1C3(C)C)[C@]1(OC(C)=O)CO[C@@H]1C[C@@H]2O [Paclitaxel],15.2,18.3
Nc1cc(F)ccc1NC(=O)c1ccc(CNC(=O)/C=C/c2cccnc2)cc1 [Tucidinostat],10.1,9.8
CNC(=O)c1nn(C)c2c1C(C)(C)Cc1cnc(Nc3ccc(N4CCN(C)CC4)cc3)nc1-2 [Milciclib],7.5,8.3
C[C@H](Nc1ncnc2[nH]cnc12)c1cc2ccc(F)cc2nc1-c1ccccn1 [AMG319],0.3,1.1
CN(CC(=O)N(Cc1ccc(C2CCCCC2)cc1)c1ccc(C(=O)O)cc1)S(=O)(=O)c1c(F)c(F)c(F)c(F)c1F [SH-4-54],7.4,5.4
O=C(O)CCCCC(CCSCc1ccccc1)SCc1ccccc1 (stereo unspecified) [CPI-613],0,0
Cc1ncc(-c2ccnc(Nc3ccc(S(C)(=O)=O)cc3)n2)n1C(C)C [AZD-5438],7.9,6.1
CNC(=O)c1ccc(C)c(-n2c(C)cc(OCc3ccc(F)cc3F)c(Br)c2=O)c1,0,0.1
CCN(CC)CCNC(=O)c1c(C)[nH]c(/C=C2\C(=O)Nc3ccc(F)cc32)c1C [Sunitinib],0,0.2
CO[C@H]1C(=O)[C@]2(C)[C@@H](OC)C[C@H]3OC[C@@]3(OC(C)=O)[C@H]2[C@H](OC(=O)c2ccccc2)[C@]2(O)C[C@H](OC(=O)[C@H](O)[C@@H](NC(=O)OC(C)(C)C)c3ccccc3)C(C)=C1C2(C)C [Cabazitaxel],8.8,14.6
CCS(=O)(=O)c1cccc(-c2cc(C(=O)NC3CCN(C)CC3)c(C)c3[nH]c4ncc(C)cc4c23)c1 [TAK-901],3,2.7
Cc1cc(Nc2cc(N3CCN(C)CC3)nc(Sc3ccc(NC(=O)C4CC4)cc3)n2)n[nH]1 [Tozasertib],0,2.5
CN1CCC(COc2cnc(-c3cccc(Cn4nc(-c5cccc(C#N)c5)ccc4=O)c3)nc2)CC1 [Tepotinib],0,0
Cc1cc(OCc2nnc(SC3CCCC3)n2-c2cccnc2)ccc1-c1ccc(S(C)(=O)=O)cc1 [NMS-873],9.1,11.4
CC(=O)c1cc2c(o1)C(=O)c1ccccc1C2=O [Napabucasin],0,0
CCN1CCN(Cc2ccc(Nc3ncc(F)c(-c4cc(F)c5nc(C)n(C(C)C)c5c4)n3)nc2)CC1 [Abemaciclib],7.8,4.1
O=C1CCC(N2C(=O)c3ccccc3C2=O)C(=O)N1 (stereo unspecified) [Thalidomide],1,0
O=C(O)CNC(=O)c1c(O)c2ccccc2n(Cc2ccccc2)c1=O [IOX-2],0,0
CC1=C(/C=C/C(C)=C/C=C/C(C)=C/C(=O)O)C(C)(C)CCC1 [Tretinoin],0,0
Nc1ncn([C@@H]2O[C@H](CO)[C@@H](O)[C@H]2O)c(=O)n1 [Azacitidine],0.4,0.5
Clc1ccc(C(c2ccccc2Cl)C(Cl)Cl)cc1 (stereo unspecified) [Mitotane],0,0.6
Cc1[nH]nc(C(F)(F)F)c1Cc1sc2c(c1C(=O)N1C[C@](C)(O)CO1)c(=O)n(C)c(=O)n2C(C)C [AZD3965],0,0
